One test has as its target T1, ALDH1B1 (Homo sapiens, UniProt P30837).
T1 sequence (P30837 18-517): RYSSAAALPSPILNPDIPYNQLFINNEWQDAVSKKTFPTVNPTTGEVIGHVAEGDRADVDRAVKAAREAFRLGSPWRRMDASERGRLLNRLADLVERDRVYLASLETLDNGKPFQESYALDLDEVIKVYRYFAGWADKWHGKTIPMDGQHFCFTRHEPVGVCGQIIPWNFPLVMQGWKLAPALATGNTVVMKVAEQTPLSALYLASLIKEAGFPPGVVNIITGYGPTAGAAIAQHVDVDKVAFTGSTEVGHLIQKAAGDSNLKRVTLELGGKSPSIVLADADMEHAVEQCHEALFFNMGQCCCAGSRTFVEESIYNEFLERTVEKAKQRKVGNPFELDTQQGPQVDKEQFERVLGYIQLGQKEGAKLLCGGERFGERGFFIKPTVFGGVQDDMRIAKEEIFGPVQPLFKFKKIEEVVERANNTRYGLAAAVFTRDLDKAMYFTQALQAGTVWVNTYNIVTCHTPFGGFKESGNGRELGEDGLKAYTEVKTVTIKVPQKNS
Briefly: ALDEFLUOR assay of cellular ALDH1B1 activity in ALDH1B1-transfected ALDH1A3−/− A375 cells. The test is classed as cell-based. The following applies: for IC50: ALDEFLUOR, ALDH1B1-overexpressing ALDH1A3−/− A375 cells, read-out: ALDH1B1(in cellulo) IC50. As to the method:
ALDH1A3^−/− A375 cells were seeded into a 6-well plate at a density of 5×10^5 cells/well and cultured for 24 h. The cells were then transfected with either pCMV6-entry, pCMV6-GFP (Addgene, plasmid 11153), or pCMV-ALDH1B1. After 24 h, the media was replaced and transfection efficiencies were estimated by the EGFP-positive cells in the pCMV-GFP-transfected well. The cells were cultured for another 24 h and their ALDH activities were quantified using the ALDEFLUOR assay. Briefly, the cells were isolated from the plate with trypsin and resuspended in ALDEFLUOR assay buffer (STEMCELL Technologies) at a concentration of 4×10^5 cells/mL. Each ALDEFLUOR assay used 0.5 mL of this cell suspension, and the cells were treated with individual compounds for 15 min at 37° C. and 5% CO2. The cell suspensions were then treated with 2.5 μL ALDEFLUOR reagent and incubated for an additional 30 min at 37° C. and 5% CO2. The cells were then collected by centrifugation (450×g) for 5 min at room temperature, resuspended in 200 μL assay buffer, and analyzed with an LSR II flow cytometer (BD Biosciences) at the Stanford FACS facility.

Another test has as its system SW480 cells. Briefly: Seahorse oxygen-consumption-rate assay (SW480). The test is classed as cell-based. The following applies: Homo sapiens. As to the method:
SW480 cells were seeded into a XF96 microplate (Agilent) at a density of 2×10^4 cells/well and cultured for 24 h. The cells were then incubated for 1 h at 37° C. in a non-CO2 incubator, and the plate was then loaded into a 96-well Seahorse XF analyzer (Agilent) and sequentially injected with the indicated compounds, 1 μM oligomycin A, 1 μM FCCP, or 0.5 μM rotenone/antimycin according to the Agilent Mito Stress protocol. The oxygen consumption rates (OCRs, pmol/min) for each well were measured every 5 min for a 15-min period. Basal OCR values was normalized as 100% for data analyses.

In another test the test system is Hedgehog (Hh) signaling. Briefly: Hh pathway assay (Shh-LIGHT2 Gli-dependent luciferase reporter, NIH-3T3). Type of test: cell-based, murine. To be noted: Mus musculus; read-out: IC50 in Hh pathway assays. As to the method: NIH-3T3 cells stably transfected with Gli-dependent firefly luciferase reporter (Shh-LIGHT2 cells (Taipale, J. et al. (2000) Nature 406, 1005-1009) were seeded into 96-well plates at a density of 2×10^4 cells/well and cultured for 24 h. The cells were then cultured in low-serum (0.5% CS) media containing 100 U/mL penicillin, 100 μg/mL streptomycin, and 200 nM Smoothened agonist (SAG) (Chen, J. K. et al. (2002) Proc. Natl. Acad. Sci. U.S.A. 99, 14071-14076; Frank-Kamenetsky, M. et al. (2002) J. Biol. 1, 10) for 30 h. CellTiter AQueous One (20 μL/well; Promega) was added to the cells and incubated for 30 min at 37° C., and cell viabilities were measured as the 490-nm absorbance of the culture media using a Spectramax M2e microplate reader (Molecular Devices). The cells were then washed with PBS and incubated with Bright-Glo reagent (100 μL/well; Promega) for 5 min at room temperature. The resulting chemiluminescence was measured on a Veritas microplate luminometer (Turner BioSystems) and normalized to the CellTiter signal. The normalized luciferase activities for each compound treatment regimen were normalized further to the DMSO control, and dose-responsive curves were generated using Prism software (GraphPad).
On the technique in general: A reporter such as luciferase makes a cellular process visible.

The structures appear in SMILES notation.

Consider five compounds from patent publication US12570661B2, “Isoform-specific aldehyde dehydrogenase inhibitors” (The Board of Trustees of the Leland Stanford Junior …, priority 2020, dated 2026).

With `COc1ccccc1-n1cc(-c2ccccn2)[n+]2c1CCCCC2` [Compound 63], the “effect on ALDH1B1-dependent ALDEFLUOR signal (cellular ALDH1B1 activity)” value at ALDH1B1 (flow cytometry) is on record as “had no effect”.
As for `COc1ccccc1C1=CN(c2ccc(-c3ccccc3)cc2)C2=NCCCCN12` [HPI-273], the IC50 at ALDH1B1 is 35 nM.
For `COc1ccccc1-n1cc(-c2ccc(-c3ccccc3)cc2)[n+]2c1CCCCC2` [Imidazolium 2], the IC50 on ALDH1B1 is 38 nM; in the test on SW480 cells it was 540 nM; in the test with Hedgehog (Hh) signaling, approximately 700 nM.
On to `COc1ccccc1-c1ccc(-c2cn(-c3ccccc3OC)c3[n+]2CCCCC3)cc1.[Br-]` [Imidazolium 8], for which the IC50 at ALDH1B1 was found to be 22 nM; with SW480 cells it was 340 nM.
Take `COc1ccccc1C1=CN(c2ccc(-c3ccccc3)cc2)C2=NCCCN12` [STL5-T-0002]: on ALDH1B1, the half-maximal inhibitory concentration (IC50) is 110 nM.

The term IC50 denotes the midpoint of a concentration-inhibition curve.
